Source: the supplement of paper PMC10307832

Tests used:
Test in all cases: relative viability (nuclei count vs DMSO), 5 days (fraction); higher = more cells survive
LXF-289 = tested on: LXF-289
In short: (§1)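 Lung cancer cell lines, seeded in 1536-well plates, were treated the following day by pin tool with a single drug or with five library-drug doses (not always all listed) in √10 steps on top of a fixed anchor-drug dose. Cells were fixed and nuclei stained in one step after 5 days, and nuclei were counted. Relative viability is the nuclei count for treated wells divided by that for vehicle wells, reported as medians of duplicate plates.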

NCI-H1355 = tested on: NCI-H1355
In short: as §1

NCI-H1651 = tested on: NCI-H1651
In short: as §1

NCI-H1755 = tested on: NCI-H1755
In short: as §1

NCI-H1792 = tested on: NCI-H1792
In short: as §1

NCI-H1915 = tested on: NCI-H1915
In short: as §1

NCI-H2347 = tested on: NCI-H2347
In short: as §1

NCI-H3122 = tested on: NCI-H3122
In short: as §1

NCI-H322M = tested on: NCI-H322M
In short: as §1

NCI-H441 = tested on: NCI-H441
In short: as §1

NCI-H460 = tested on: NCI-H460
In short: as §1

NCI-H520 = tested on: NCI-H520
In short: as §1

NCI-H596 = tested on: NCI-H596
In short: as §1

NCI-H727 = tested on: NCI-H727
In short: as §1

PC-14 = tested on: PC-14
In short: as §1

RERF-LC-KJ = tested on: RERF-LC-KJ
In short: as §1

SK-MES-1 = tested on: SK-MES-1
In short: as §1

For `O=c1cc(-c2cccc3c2Sc2ccccc2S3)oc(N2CCOCC2)c1` + CC1(C)CCC(c2ccc(Cl)cc2)=C(CN2CCN(c3ccc(C(=O)NS(=O)(=O)c4ccc(N[C@H](CCN5CCOCC5)CSc5ccccc5)c(S(=O)(=O)C(F)(F)F)c4)cc3)CC2)C1 [Navitoclax] (partner 0.5 µM), which relative viability (LXF-289; first compound 0.08 µM) is on record?
Its relative viability is 0.996.

What about the relative viability (LXF-289; first compound 0.253 µM) of the same compound?
Its relative viability is 1.06.

What about the relative viability (LXF-289; first compound 0.8 µM) of the same compound?
Its relative viability is 1.03.

What about the relative viability (LXF-289; first compound 2.53 µM) of the same compound?
The relative viability was 0.951.

What about the relative viability (LXF-289; first compound 8 µM) of the same compound?
Its relative viability is 1.

And the relative viability (NCI-H1355; first compound 0.08 µM)?
Its relative viability is 0.982.

And the relative viability (NCI-H1355; first compound 0.253 µM)?
Its relative viability is 1.06.

And the relative viability (NCI-H1355; first compound 0.8 µM)?
The relative viability was 0.847.

And the relative viability (NCI-H1355; first compound 2.53 µM)?
The relative viability was 0.942.

And the relative viability (NCI-H1355; first compound 8 µM)?
The relative viability was 0.685.

And the relative viability (NCI-H1651; first compound 0.08 µM)?
Its relative viability is 1.04.

And the relative viability (NCI-H1651; first compound 0.253 µM)?
Its relative viability is 1.42.

And the relative viability (NCI-H1651; first compound 0.8 µM)?
Its relative viability is 0.852.

What about the relative viability (NCI-H1651; first compound 2.53 µM) of the same compound?
The relative viability was 0.994.

And the relative viability (NCI-H1651; first compound 8 µM)?
Its relative viability is 1.14.

And the relative viability (NCI-H1755; first compound 0.08 µM)?
The relative viability was 1.05.

And the relative viability (NCI-H1755; first compound 0.253 µM)?
The relative viability was 1.13.

And the relative viability (NCI-H1755; first compound 0.8 µM)?
Its relative viability is 0.992.

What about the relative viability (NCI-H1755; first compound 2.53 µM) of the same compound?
Its relative viability is 0.988.

What about the relative viability (NCI-H1755; first compound 8 µM) of the same compound?
The relative viability was 0.939.

And the relative viability (NCI-H1792; first compound 0.253 µM)?
Its relative viability is 0.761.

What about the relative viability (NCI-H1792; first compound 0.8 µM) of the same compound?
The relative viability was 0.471.

What about the relative viability (NCI-H1792; first compound 2.53 µM) of the same compound?
The relative viability was 0.555.

And the relative viability (NCI-H1792; first compound 8 µM)?
Its relative viability is 0.689.

What about the relative viability (NCI-H1915; first compound 0.08 µM) of the same compound?
Its relative viability is 0.776.

What about the relative viability (NCI-H1915; first compound 0.253 µM) of the same compound?
Its relative viability is 0.847.

What about the relative viability (NCI-H1915; first compound 0.8 µM) of the same compound?
The relative viability was 0.795.

What about the relative viability (NCI-H1915; first compound 2.53 µM) of the same compound?
Its relative viability is 0.787.

And the relative viability (NCI-H1915; first compound 8 µM)?
Its relative viability is 0.872.

And the relative viability (NCI-H2347; first compound 0.08 µM)?
The relative viability was 0.855.

What about the relative viability (NCI-H2347; first compound 0.253 µM) of the same compound?
The relative viability was 1.08.

And the relative viability (NCI-H2347; first compound 0.8 µM)?
The relative viability was 0.799.

And the relative viability (NCI-H2347; first compound 2.53 µM)?
Its relative viability is 0.839.

What about the relative viability (NCI-H2347; first compound 8 µM) of the same compound?
The relative viability was 0.969.

What about the relative viability (NCI-H3122; first compound 0.08 µM) of the same compound?
Its relative viability is 1.04.

And the relative viability (NCI-H3122; first compound 0.253 µM)?
The relative viability was 1.01.

What about the relative viability (NCI-H3122; first compound 0.8 µM) of the same compound?
Its relative viability is 1.03.

What about the relative viability (NCI-H3122; first compound 2.53 µM) of the same compound?
Its relative viability is 1.02.

What about the relative viability (NCI-H3122; first compound 8 µM) of the same compound?
Its relative viability is 1.03.

And the relative viability (NCI-H322M; first compound 0.08 µM)?
Its relative viability is 1.2.

What about the relative viability (NCI-H322M; first compound 0.253 µM) of the same compound?
Its relative viability is 1.3.

And the relative viability (NCI-H322M; first compound 0.8 µM)?
Its relative viability is 1.15.

And the relative viability (NCI-H322M; first compound 2.53 µM)?
The relative viability was 1.16.

What about the relative viability (NCI-H322M; first compound 8 µM) of the same compound?
Its relative viability is 1.05.

What about the relative viability (NCI-H441; first compound 0.08 µM) of the same compound?
The relative viability was 1.14.

What about the relative viability (NCI-H441; first compound 0.253 µM) of the same compound?
Its relative viability is 0.909.

What about the relative viability (NCI-H441; first compound 0.8 µM) of the same compound?
The relative viability was 0.523.

And the relative viability (NCI-H441; first compound 2.53 µM)?
Its relative viability is 0.776.

And the relative viability (NCI-H441; first compound 8 µM)?
Its relative viability is 0.762.

What about the relative viability (NCI-H460; first compound 0.08 µM) of the same compound?
The relative viability was 1.24.

What about the relative viability (NCI-H460; first compound 0.8 µM) of the same compound?
The relative viability was 1.42.

And the relative viability (NCI-H460; first compound 2.53 µM)?
Its relative viability is 1.23.

What about the relative viability (NCI-H520; first compound 0.08 µM) of the same compound?
The relative viability was 0.992.

What about the relative viability (NCI-H520; first compound 0.253 µM) of the same compound?
The relative viability was 1.1.

What about the relative viability (NCI-H520; first compound 0.8 µM) of the same compound?
The relative viability was 1.04.

What about the relative viability (NCI-H520; first compound 2.53 µM) of the same compound?
Its relative viability is 0.993.

And the relative viability (NCI-H520; first compound 8 µM)?
The relative viability was 1.2.

What about the relative viability (NCI-H596; first compound 0.08 µM) of the same compound?
Its relative viability is 0.843.

And the relative viability (NCI-H596; first compound 0.253 µM)?
Its relative viability is 1.3.

And the relative viability (NCI-H596; first compound 0.8 µM)?
Its relative viability is 1.09.

What about the relative viability (NCI-H596; first compound 2.53 µM) of the same compound?
Its relative viability is 1.09.

What about the relative viability (NCI-H596; first compound 8 µM) of the same compound?
Its relative viability is 1.14.

What about the relative viability (NCI-H727; first compound 0.253 µM) of the same compound?
Its relative viability is 0.356.

And the relative viability (NCI-H727; first compound 2.53 µM)?
The relative viability was 0.369.

What about the relative viability (NCI-H727; first compound 8 µM) of the same compound?
Its relative viability is 0.494.

What about the relative viability (PC-14; first compound 0.08 µM) of the same compound?
Its relative viability is 1.04.

And the relative viability (PC-14; first compound 0.253 µM)?
The relative viability was 1.31.

And the relative viability (PC-14; first compound 0.8 µM)?
Its relative viability is 1.01.

What about the relative viability (PC-14; first compound 2.53 µM) of the same compound?
Its relative viability is 0.946.

And the relative viability (PC-14; first compound 8 µM)?
Its relative viability is 1.05.

And the relative viability (RERF-LC-KJ; first compound 0.08 µM)?
The relative viability was 0.768.

What about the relative viability (RERF-LC-KJ; first compound 0.253 µM) of the same compound?
Its relative viability is 0.711.

And the relative viability (RERF-LC-KJ; first compound 0.8 µM)?
The relative viability was 0.934.

What about the relative viability (RERF-LC-KJ; first compound 2.53 µM) of the same compound?
Its relative viability is 0.798.

What about the relative viability (RERF-LC-KJ; first compound 8 µM) of the same compound?
The relative viability was 0.856.

What about the relative viability (SK-MES-1; first compound 0.08 µM) of the same compound?
Its relative viability is 1.1.

What about the relative viability (SK-MES-1; first compound 0.253 µM) of the same compound?
The relative viability was 1.54.

What about the relative viability (SK-MES-1; first compound 0.8 µM) of the same compound?
Its relative viability is 1.2.

What about the relative viability (SK-MES-1; first compound 2.53 µM) of the same compound?
Its relative viability is 1.17.

And the relative viability (SK-MES-1; first compound 8 µM)?
Its relative viability is 1.24.
